Results taken from BindingDB's records for doi:10.1124/jpet.105.083436 (Louisiana State University, 2005).

Biological target: Nociceptin receptor (Homo sapiens, UniProt P41146)
Sequence (P41146 whole entry): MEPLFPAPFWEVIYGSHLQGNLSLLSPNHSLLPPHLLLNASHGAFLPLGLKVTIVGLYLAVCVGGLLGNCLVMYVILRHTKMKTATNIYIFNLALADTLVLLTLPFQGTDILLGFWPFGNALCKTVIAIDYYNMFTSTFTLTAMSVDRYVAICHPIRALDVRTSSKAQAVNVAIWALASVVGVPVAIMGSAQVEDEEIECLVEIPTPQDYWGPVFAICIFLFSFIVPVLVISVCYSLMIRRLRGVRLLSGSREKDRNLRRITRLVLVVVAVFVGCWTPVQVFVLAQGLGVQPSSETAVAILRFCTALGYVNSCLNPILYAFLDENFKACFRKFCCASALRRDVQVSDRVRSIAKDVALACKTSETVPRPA

Substance: Ac-RYYRWKKKKKKK-NH2
- Ki: 0.5 nM
